# Test results taken from US11382918B2, “Methods for treating Huntington's Disease” (PTC Therapeutics, Inc., priority 2017, dated 2022).
# Counter-ions that a name gives are not always drawn.
# Test system: Endogenous Huntingtin Protein (HTT)
# Test: Endogenous Huntingtin Protein Assay (ELISA-based MSD electrochemiluminescence)
# Format: cell-based
# Settings: Table 1
# Procedure, shortened: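 HTT protein in lysates was measured by electrochemiluminescence on the MSD platform. Rabbit monoclonal 5656S followed by SULFO-TAG anti-rabbit antibody served for detection after overnight 4 °C capture with MAB2166 or the polyglutamine-directed MW1 antibody.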
row,SMILES,IC50 [nM]
1,"Cc1cn2cc(-c3cc(=O)n4cc(C5CCNCC5)ccc4n3)ccc2n1 [compound 438, 2-(2-methylimidazo[1,2-a]pyridin-6-yl)-7-(piperidin-4-yl)-4H-pyrido[1,2-a]pyrimidin-4-one]",500 to 1000
2,"Cc1cn2cc(-c3cc(=O)n4cc(C5CCN(C6CCC6)CC5)ncc4n3)ccc2n1 [compound 628, 7-(1-cyclobutylpiperidin-4-yl)-2-(2-methylimidazo[1,2-a]pyridin-6-yl)-4H-pyrazino[1,2-a]pyrimidin-4-one]",3000 to 33000
3,"COc1cncc(-c2cc(=O)n3cc(N4CCNCC4)ccc3n2)c1 [compound 229, 2-(5-methoxypyridin-3-yl)-7-(piperazin-1-yl)-4H-pyrido[1,2-a]pyrimidin-4-one]",3000 to 33000
4,"CN1CCN(c2cn3c(=O)cc(-c4ccc5nn(C)cc5c4)nc3cn2)CC1 [compound 589, 2-(2-methyl-2H-indazol-5-yl)-7-(4-methylpiperazin-1-yl)-4H-pyrazino[1,2-a]pyrimidin-4-one]",3000 to 33000
5,"Cc1cn2nc(-c3cc(=O)n4cc(C5CCN(CCF)CC5)ccc4n3)cc2c(C)n1 [compound 662, 2-(4,6-dimethylpyrazolo[1,5-a]pyrazin-2-yl)-7-[1-(2-fluoroethyl)piperidin-4-yl]-4H-pyrido[1,2-a]pyrimidin-4-one]",500 to 1000
6,"Cc1nc(C2=CCNCC2)cn2c(=O)cc(-c3ccc4nn(C)cc4c3)nc12 [compound 791, 9-methyl-2-(2-methyl-2H-indazol-5-yl)-7-(1,2,3,6-tetrahydropyridin-4-yl)-4H-pyrazino[1,2-a]pyrimidin-4-one]",< 100
7,"Cn1cc2cc(-c3cc(=O)n4cc(C5CCNCC5)ncc4n3)ccc2n1 [compound 566, 2-(2-methyl-2H-indazol-5-yl)-7-(piperidin-4-yl)-4H-pyrazino[1,2-a]pyrimidin-4-one]",100 to 500
8,"Cc1cn2ccc(-c3cc(=O)n4cc(N5CCNCC5)ccc4n3)cc2n1 [compound 555, 2-(2-methylimidazo[1,2-a]pyridin-7-yl)-7-(piperazin-1-yl)-4H-pyrido[1,2-a]pyrimidin-4-one]",3000 to 33000
9,"COc1cc(-c2ccnc(O)c2)ccc1-c1cc(=O)n2cc(C3=CCNCC3)ccc2n1 [compound 849, 2-[4-(2-hydroxypyridin-4-yl)-2-methoxyphenyl]-7-(1,2,3,6-tetrahydropyridin-4-yl)-4H-pyrido[1,2-a]pyrimidin-4-one hydrochloride (1:1)]",3000 to 33000
10,"Cn1ncc2cc(-c3cc(=O)n4cc(N5CCNCC5)ccc4n3)ccc21 [compound 490, 2-(1-methyl-1H-indazol-5-yl)-7-(piperazin-1-yl)-4H-pyrido[1,2-a]pyrimidin-4-one]",3000 to 33000
11,"CCN1CC=C(c2cn3c(=O)cc(-c4ccc5nc(C)cn5n4)nc3cn2)CC1 [compound 842, 7-(1-ethyl-1,2,3,6-tetrahydropyridin-4-yl)-2-(2-methylimidazo[1,2-b]pyridazin-6-yl)-4H-pyrazino[1,2-a]pyrimidin-4-one]",3000 to 33000
12,"Cc1cn2nc(-c3cc(=O)n4cc(N5CCC(N6CCOCC6)CC5)ccc4n3)cc2c(C)n1 [compound 428, 2-(4,6-dimethylpyrazolo[1,5-a]pyrazin-2-yl)-7-[4-(morpholin-4-yl)piperidin-1-yl]-4H-pyrido[1,2-a]pyrimidin-4-one]",3000 to 33000
13,"CCN1CC=C(c2ccc3nc(-c4cc(F)c5nc(C)oc5c4)cc(=O)n3c2)CC1 [compound 318, 7-(1-ethyl-1,2,3,6-tetrahydropyridin-4-yl)-2-(4-fluoro-2-methyl-1,3-benzoxazol-6-yl)-4H-pyrido[1,2-a]pyrimidin-4-one]",1000 to 3000
14,"Cc1nc2ccc(-c3cc(=O)n4cc(C5=CCN(C)CC5)ncc4n3)cc2o1 [compound 422, 2-(2-methyl-1,3-benzoxazol-6-yl)-7-(1-methyl-1,2,3,6-tetrahydropyridin-4-yl)-4H-pyrazino[1,2-a]pyrimidin-4-one]",100 to 500
15,"Cn1cc2cc(-c3cc(=O)n4cc(C5CCN(CCO)CC5)ccc4n3)ccc2n1 [compound 613, 7-[1-(2-hydroxyethyl)piperidin-4-yl]-2-(2-methyl-2H-indazol-5-yl)-4H-pyrido[1,2-a]pyrimidin-4-one]",1000 to 3000
16,"CCc1nc(C)cn2nc(-c3cc(=O)n4cc(C5CCN(C)CC5)ncc4n3)cc12 [compound 654, 2-(4-ethyl-6-methylpyrazolo[1,5-a]pyrazin-2-yl)-7-(1-methylpiperidin-4-yl)-4H-pyrazino[1,2-a]pyrimidin-4-one]",< 100
17,"CCc1cc(-c2cc(=O)n3cc(N4CCN(CCO)[C@H](C)C4)ccc3n2)cn2cc(C)nc12 [compound 649, 2-(8-ethyl-2-methylimidazo[1,2-a]pyridin-6-yl)-7-[(3R)-4-(2-hydroxyethyl)-3-methylpiperazin-1-yl]-4H-pyrido[1,2-a]pyrimidin-4-one]",500 to 1000
18,"CCN1CCC(c2cn3c(=O)cc(-c4cc(C)c5nc(C)cn5c4)nc3cn2)CC1 [compound 593, 2-(2,8-dimethylimidazo[1,2-a]pyridin-6-yl)-7-(1-ethylpiperidin-4-yl)-4H-pyrazino[1,2-a]pyrimidin-4-one]",1000 to 3000
19,"COc1ccc(-c2cc(=O)n3cc(N4CCNCC4)ccc3n2)cc1F [compound 72, 2-(3-fluoro-4-methoxyphenyl)-7-(piperazin-1-yl)-4H-pyrido[1,2-a]pyrimidin-4-one]",3000 to 33000
20,"CCc1cc(-c2cc(=O)n3cc(N4CCNCC4)ccc3n2)cn2cc(C)nc12 [compound 637, 2-(8-ethyl-2-methylimidazo[1,2-a]pyridin-6-yl)-7-(piperazin-1-yl)-4H-pyrido[1,2-a]pyrimidin-4-one]",500 to 1000
21,"Cc1cn2cc(-c3cc(=O)n4cc(C5CCN(CCO)CC5)ncc4n3)cc(Cl)c2n1 [compound 599, 2-(8-chloro-2-methylimidazo[1,2-a]pyridin-6-yl)-7-[1-(2-hydroxyethyl)piperidin-4-yl]-4H-pyrazino[1,2-a]pyrimidin-4-one]",1000 to 3000
22,"Cc1cn2cc(-c3cc(=O)n4cc(C5CCNCC5)ncc4n3)cc(Cl)c2n1 [compound 587, 2-(8-chloro-2-methylimidazo[1,2-a]pyridin-6-yl)-7-(piperidin-4-yl)-4H-pyrazino[1,2-a]pyrimidin-4-one]",100 to 500
23,"CCc1nc(C)cn2nc(-c3cc(=O)n4cc(C5CCNCC5)ccc4n3)cc12 [compound 656, 2-(4-ethyl-6-methylpyrazolo[1,5-a]pyrazin-2-yl)-7-(piperidin-4-yl)-4H-pyrido[1,2-a]pyrimidin-4-one]",100 to 500

# Further lines, results first:
row,IC50 [nM],SMILES
1,3000 to 33000,"Cc1cn2cc(-c3cc(=O)n4cc(N5CCNCC5)ccc4n3)cc(C3CC3)c2n1 [compound 714, 2-(8-cyclopropyl-2-methylimidazo[1,2-a]pyridin-6-yl)-7-(piperazin-1-yl)-4H-pyrido[1,2-a]pyrimidin-4-one]"
2,3000 to 33000,"Cc1cc(-c2cc(=O)n3cc(N4CCN[C@@H](C)C4)ccc3n2)cc2cn(C)nc12 [compound 750, 2-(2,7-dimethyl-2H-indazol-5-yl)-7-[(3S)-3-methylpiperazin-1-yl]-4H-pyrido[1,2-a]pyrimidin-4-one]"
3,1000 to 3000,"Cc1cc(-c2cc(=O)n3cc(N4CCN(C)CC4)ccc3n2)cc2cn(C)nc12 [compound 768, 2-(2,7-dimethyl-2H-indazol-5-yl)-7-(4-methylpiperazin-1-yl)-4H-pyrido[1,2-a]pyrimidin-4-one]"
4,1000 to 3000,"Cc1cn2nc(-c3cc(=O)n4cc(C5CCNCC5)cc(C)c4n3)cc2c(C)n1 [compound 671, 2-(4,6-dimethylpyrazolo[1,5-a]pyrazin-2-yl)-9-methyl-7-(piperidin-4-yl)-4H-pyrido[1,2-a]pyrimidin-4-one]"
5,3000 to 33000,"Cc1cc(-c2cc(=O)n3cc(C4CC(C)(C)NC(C)(C)C4)cc(C)c3n2)cc2cn(C)nc12 [compound 866, 2-(2,7-dimethyl-2H-indazol-5-yl)-9-methyl-7-(2,2,6,6-tetramethylpiperidin-4-yl)-4H-pyrido[1,2-a]pyrimidin-4-one]"
6,3000 to 33000,"Cc1cn2nc(-c3cc(=O)n4cc(N5CCNCC5)ccc4n3)cc2c(N(C)C)n1 [compound 688, 2-[4-(dimethylamino)-6-methylpyrazolo[1,5-a]pyrazin-2-yl]-7-(piperazin-1-yl)-4H-pyrido[1,2-a]pyrimidin-4-one]"
7,500 to 1000,"Cc1cc(C2CCN(C)CC2)cn2c(=O)cc(-c3ccc4nn(C)cc4c3)nc12 [compound 705, 9-methyl-2-(2-methyl-2H-indazol-5-yl)-7-(1-methylpiperidin-4-yl)-4H-pyrido[1,2-a]pyrimidin-4-one]"
8,3000 to 33000,"Cc1cn2cc(-c3cc(=O)n4cc(N5CCNCC5)ccc4n3)cc(CO)c2n1 [compound 674, 2-[8-(hydroxymethyl)-2-methylimidazo[1,2-a]pyridin-6-yl]-7-(piperazin-1-yl)-4H-pyrido[1,2-a]pyrimidin-4-one]"
9,3000 to 33000,"Cc1ccc2nc(-c3cc(=O)n4cc(N5CCN(C)CC5)ccc4n3)cn2c1 [compound 836, 2-(6-methylimidazo[1,2-a]pyridin-2-yl)-7-(4-methylpiperazin-1-yl)-4H-pyrido[1,2-a]pyrimidin-4-one]"
10,500 to 1000,"CCc1nc(C)cn2cc(-c3cc(=O)n4cc(N5C[C@@H](C)N[C@@H](C)C5)ccc4n3)cc12 [compound 748, 7-[(3R,5S)-3,5-dimethylpiperazin-1-yl]-2-(1-ethyl-3-methylpyrrolo[1,2-a]pyrazin-7-yl)-4H-pyrido[1,2-a]pyrimidin-4-one]"
11,100 to 500,"Cc1cc(-c2cc(=O)n3cc(N4CCNCC4)ccc3n2)cc2cn(C)nc12 [compound 738, 2-(2,7-dimethyl-2H-indazol-5-yl)-7-(piperazin-1-yl)-4H-pyrido[1,2-a]pyrimidin-4-one]"
12,3000 to 33000,"CCc1nc(C)cn2nc(-c3cc(=O)n4cc(N5CCN(CCCF)CC5)ccc4n3)cc12 [compound 665, 2-(4-ethyl-6-methylpyrazolo[1,5-a]pyrazin-2-yl)-7-[4-(3-fluoropropyl)piperazin-1-yl]-4H-pyrido[1,2-a]pyrimidin-4-one]"
13,3000 to 33000,"CN1CCC(c2ccc3nc(-c4ccc(N(C)C)nc4)cc(=O)n3c2)CC1 [compound 841, 2-[6-(dimethylamino)pyridin-3-yl]-7-(1-methylpiperidin-4-yl)-4H-pyrido[1,2-a]pyrimidin-4-one]"
